In this experiment the target is T1, human Cav3.2 channels (Homo sapiens, UniProt O95180).
T1 construct: human Cav3.2 channel ORF (Open Reading Frame) gene; expressed in transfected cells; host or cells: HEK293 cells (ATCC No. CRL-1573), pcDNA3.1(+) plasmid
Briefly: T-type calcium blocking action: intracellular calcium (Fluo-4 AM fluorescence) in HEK293 cells steadily expressing human Cav3.2 channels. The class given is cell-based. The note with it: HEK293 cells expressing human Cav3.2; KCl-stimulated calcium influx, Fluo-4 fluorescence; Tables 1 to 3. The method, boiled down:
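Fluo-4 AM-loaded stable HEK293 cells were preincubated 15 min at RT with compound (0.1% DMSO final) in choline-based buffer (pH 7.3). Gramicidin was added, then KCl-induced calcium influx was read at 485/510 nm for 10 s. Percent block came from peak rise over baseline, and IC50 from log-concentration plots.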

This passage reports IC50 results from patent US20220226299A1 (NIPPON CHEMIPHAR CO., LTD., priority 2019, published 2022).

One may read the IC50 as the concentration that gives 50% inhibition.

T1 sequence (O95180 whole entry): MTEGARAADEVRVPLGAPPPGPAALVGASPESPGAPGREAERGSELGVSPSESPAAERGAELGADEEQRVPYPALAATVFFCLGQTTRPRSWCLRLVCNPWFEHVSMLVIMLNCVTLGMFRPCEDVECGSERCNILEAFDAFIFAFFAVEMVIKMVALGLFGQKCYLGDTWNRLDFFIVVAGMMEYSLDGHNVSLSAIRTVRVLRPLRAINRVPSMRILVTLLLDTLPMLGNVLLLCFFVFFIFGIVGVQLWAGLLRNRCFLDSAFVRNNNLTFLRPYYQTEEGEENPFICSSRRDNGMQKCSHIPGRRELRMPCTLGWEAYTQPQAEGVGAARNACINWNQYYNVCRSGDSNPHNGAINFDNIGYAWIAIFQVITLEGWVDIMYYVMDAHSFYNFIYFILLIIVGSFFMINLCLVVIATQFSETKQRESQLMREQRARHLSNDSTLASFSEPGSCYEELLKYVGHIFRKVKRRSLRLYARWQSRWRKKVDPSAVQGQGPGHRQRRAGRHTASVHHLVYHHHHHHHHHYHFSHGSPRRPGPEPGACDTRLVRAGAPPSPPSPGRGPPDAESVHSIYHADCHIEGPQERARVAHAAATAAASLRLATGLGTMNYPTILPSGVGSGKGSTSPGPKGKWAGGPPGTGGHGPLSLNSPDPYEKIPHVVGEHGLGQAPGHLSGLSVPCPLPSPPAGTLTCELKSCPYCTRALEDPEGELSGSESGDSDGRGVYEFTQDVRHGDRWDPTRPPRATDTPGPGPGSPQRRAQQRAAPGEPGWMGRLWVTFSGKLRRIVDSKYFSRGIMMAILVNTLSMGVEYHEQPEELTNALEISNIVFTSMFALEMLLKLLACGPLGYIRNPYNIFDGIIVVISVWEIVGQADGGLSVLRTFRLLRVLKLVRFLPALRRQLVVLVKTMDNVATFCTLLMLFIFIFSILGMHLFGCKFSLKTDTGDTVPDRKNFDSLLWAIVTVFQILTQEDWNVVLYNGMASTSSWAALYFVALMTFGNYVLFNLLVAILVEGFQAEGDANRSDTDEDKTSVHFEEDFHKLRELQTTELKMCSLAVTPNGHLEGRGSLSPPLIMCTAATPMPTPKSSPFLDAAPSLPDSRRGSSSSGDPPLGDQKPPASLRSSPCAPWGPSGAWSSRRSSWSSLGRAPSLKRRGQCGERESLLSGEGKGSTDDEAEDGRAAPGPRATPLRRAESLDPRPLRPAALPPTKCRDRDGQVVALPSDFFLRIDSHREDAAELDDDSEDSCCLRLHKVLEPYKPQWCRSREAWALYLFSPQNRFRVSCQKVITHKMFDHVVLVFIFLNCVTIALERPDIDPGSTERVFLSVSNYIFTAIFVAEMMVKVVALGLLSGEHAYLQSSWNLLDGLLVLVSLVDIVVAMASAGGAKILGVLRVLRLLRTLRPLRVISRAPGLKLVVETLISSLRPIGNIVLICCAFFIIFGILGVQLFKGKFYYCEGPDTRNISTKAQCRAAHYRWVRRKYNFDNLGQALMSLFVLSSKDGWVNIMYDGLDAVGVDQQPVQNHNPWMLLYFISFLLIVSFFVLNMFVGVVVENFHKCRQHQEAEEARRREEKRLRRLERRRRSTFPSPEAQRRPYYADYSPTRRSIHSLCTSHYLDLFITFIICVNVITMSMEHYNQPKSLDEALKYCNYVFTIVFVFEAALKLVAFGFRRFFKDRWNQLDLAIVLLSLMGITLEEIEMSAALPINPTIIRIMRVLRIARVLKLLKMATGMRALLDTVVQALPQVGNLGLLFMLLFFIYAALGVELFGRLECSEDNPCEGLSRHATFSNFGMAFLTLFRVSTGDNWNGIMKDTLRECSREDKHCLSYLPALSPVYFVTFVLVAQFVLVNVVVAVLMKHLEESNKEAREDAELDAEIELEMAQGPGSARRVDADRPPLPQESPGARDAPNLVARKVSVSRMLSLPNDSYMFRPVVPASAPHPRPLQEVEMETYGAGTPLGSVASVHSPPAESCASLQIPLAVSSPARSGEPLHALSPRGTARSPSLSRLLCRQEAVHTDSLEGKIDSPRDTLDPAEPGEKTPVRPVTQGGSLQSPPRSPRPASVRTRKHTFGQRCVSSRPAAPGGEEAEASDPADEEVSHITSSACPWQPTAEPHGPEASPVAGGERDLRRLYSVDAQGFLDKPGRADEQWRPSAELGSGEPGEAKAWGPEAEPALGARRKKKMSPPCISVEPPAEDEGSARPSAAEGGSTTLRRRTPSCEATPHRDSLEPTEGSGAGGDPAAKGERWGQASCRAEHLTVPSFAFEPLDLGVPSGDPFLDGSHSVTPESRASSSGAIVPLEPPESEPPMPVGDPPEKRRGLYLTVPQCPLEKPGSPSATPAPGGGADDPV

As for `O=C(N[C@@H]1CCN(c2ccc(C(F)(F)F)nc2)C1)[C@H]1C[C@@H]1c1nc2ccccc2n1C1CC1` [Example 73, (1S,2S)-2-(1-cyclopropyl-1H-benzo[d]imidazol-2-yl)-N—((R)-1-(6-(trifluoromethyl)pyridin-3-yl)pyrrolidin-3-yl)cyclopropane-1-carboxyamide], the 50% inhibitory concentration (IC50) was 1000 nM.
To `O=C(N[C@@H]1CCN(c2cncc(C(F)(F)F)c2)C1)[C@H]1C[C@@H]1c1nc2ccc(F)cc2o1` [Example 44, (1S,2S)-2-(6-fluorobenzo[d]oxazol-2-yl)-N—((R)-1-(5-(trifluoromethyl)pyridin-3-yl)pyrrolidin-3-yl)cyclopropane-1-carboxyamide] belongs 14 nM.
To `O=C(Cc1ccc(N2CCC(F)(F)C2)cc1)N[C@@H]1CCN(c2cncc(C(F)(F)F)c2)C1` [Example 176, (R)-2-(4-(3,3-difluoropyrrolidin-1-yl)phenyl)-N-(1-(5-(trifluoromethyl)pyridin-3-yl)pyrrolidin-3-yl)acetamide] belongs 7.3 nM; to `O=C(Cc1ccc(C(F)(F)F)cc1C(F)(F)F)N[C@@H]1CCN(c2cncc(C(F)(F)F)c2)C1` [Example 140, (R)-2-(2,4-bis(trifluoromethyl)phenyl)-N-(1-(5-(trifluoromethyl)pyridin-3-yl)pyrrolidin-3-yl)acetamide], 1100 nM.
As for `O=C(Cc1ccc(C2CC2)cc1)N[C@@H]1CCN(c2ncc(Br)s2)C1` [Example 173, (R)—N-(1-(5-bromothiazol-2-yl)pyrrolidin-3-yl)-2-(4-cyclopropylphenyl)acetamide], the IC50 turned out to be 1100 nM.
For `COC(=O)C1(NC(=O)Cc2ccc(N3CCOCC3)cc2)CCN(c2cncc(C(F)(F)F)c2)C1` (stereo not drawn) [Example 41, Methyl 3-(2-(4-morpholinophenyl)acetamido)-1-(5-(trifluoromethyl)pyridin-3-yl)pyrrolidine-3-carboxylate] the value was 25 nM; for `COC(=O)C1(NC(=O)Cc2ccc(C(F)(F)F)cc2)CCN(c2cncc(C(F)(F)F)c2)C1` (stereo not drawn) [Example 38, Methyl 3-(2-(4-(trifluoromethyl)phenyl)acetamido)-1-(5-(trifluoromethyl)pyridin-3-yl)pyrrolidine-3-carboxylate], 35 nM; for `O=C(Cc1ccc(C2CC2)cc1)N[C@H]1CN(c2nc(C(F)(F)F)cs2)CC12CC2` [Example 8, (R)-2-(4-cyclopropylphenyl)-N-(5-(4-(trifluoromethyl)thiazol-2-yl)-5-azaspiro[2.4]heptan-7-yl) acetamide], 200 nM.
For `Cn1ccc2ccc(CC(=O)N[C@@H]3CCN(c4ccc(C(F)(F)F)nc4)C3)cc21` [Example 92, (R)-2-(1-methyl-1H-indol-6-yl)-N-(1-(6-(trifluoromethyl)pyridin-3-yl)pyrrolidin-3-yl)acetamide] the value was 72 nM; for `O=C(Cc1ccc2[nH]nnc2c1)N[C@@H]1CCN(c2cncc(C(F)(F)F)c2)C1` [Example 163, (R)-2-(1H-benzo[d][1,2,3]triazol-5-yl)-N-(1-(5-(trifluoromethyl)pyridin-3-yl)pyrrolidin-3-yl)acetamide], 1400 nM; for `O=C(Cc1ccc2cc[nH]c2c1)N[C@@H]1CCN(c2ccc(C(F)(F)F)nc2)C1` [Example 85, (R)-2-(1H-indol-6-yl)-N-(1-(6-(trifluoromethyl)pyridin-3-yl)pyrrolidin-3-yl)acetamide], 110 nM.
To `O=C(N[C@@H]1CCN(c2cccc(C(F)(F)F)c2)C1)[C@H]1C[C@@H]1c1nc2ccccc2n1C1CC1` [Example 75, (1S,2S)-2-(1-cyclopropyl-1H-benzo[d]imidazol-2-yl)-N—((R)-1-(3-(trifluoromethyl)phenyl)pyrrolidin-3-yl)cyclopropane-1-carboxyamide] belongs 310 nM; to `CC(C)c1ccc(CC(=O)N[C@@H]2CCN(c3cncc(C(F)(F)F)c3)C2)cc1` [Example 4, (R)-2-(4-isopropylphenyl)-N-(1-(5-(trifluoromethyl)pyridin-3-yl)pyrrolidin-3-yl)acetamide], 14 nM.
Take `O=C1CCN(c2ccc(CC(=O)N[C@@H]3CCN(c4cncc(C(F)(F)F)c4)C3)cc2)CC1` [Example 102, (R)-2-(4-(4-oxopiperidin-1-yl)phenyl)-N-(1-(5-(trifluoromethyl)pyridin-3-yl)pyrrolidin-3-yl)acetamide]: the IC50 worked out at 150 nM.
To `O=C(N[C@@H]1CCN(c2ccc(C(F)(F)F)cc2)C1)C1CC1c1nc2ccccc2[nH]1` (single isomer, unassigned) [Example 52] belongs 110 nM; to `O=C(Cc1ccc(C2CC2)cc1)N[C@H]1CN(c2ccc(C(F)(F)F)nc2)CC12CC2` [Example 7, (R)-2-(4-cyclopropylphenyl)-N-(5-(6-(trifluoromethyl)pyridin-3-yl)-5-azaspiro[2.4]heptan-7-yl) acetamide], 97 nM.
To `CC(C)(O)c1cncc(N2CC[C@@H](NC(=O)Cc3ccc(C4CC4)cc3)C2)c1` [Example 19, (R)-2-(4-cyclopropylphenyl)-N-(1-(5-(2-hydroxypropan-2-yl)pyridin-3-yl)pyrrolidin-3-yl)acetamide] belongs 3500 nM; to `O=C(Cc1ccc([N+](=O)[O-])cc1)N[C@@H]1CCN(c2cncc(C(F)(F)F)c2)C1` [Example 30, (R)-2-(4-nitrophenyl)-N-(1-(5-(trifluoromethyl)pyridin-3-yl)pyrrolidin-3-yl)acetamide], 650 nM; to `O=C(Cc1ccc(N2CCOCC2)cc1)N[C@@H]1CCN(c2nc(C(F)(F)F)cs2)C1` [Example 40, (R)-2-(4-morpholinophenyl)-N-(1-(4-(trifluoromethyl)thiazol-2-yl)pyrrolidin-3-yl)acetamide], 300 nM.
For `O=C(Cc1ccc(C2CC2)cc1)N[C@@H]1CCN(c2cncc(C(F)(F)F)c2)C1` [Example 1, (R)-2-(4-cyclopropylphenyl)-N-(1-(5-(trifluoromethyl)pyridin-3-yl)pyrrolidin-3-yl)acetamide] the value was 13 nM; for `O=C(N[C@@H]1CCN(c2cncc(C(F)(F)F)c2)C1)C1CC1c1ccc(Cl)cc1` (single isomer, unassigned) [Example 108B], 200 nM; for `COc1ncc(N2CC[C@@H](NC(=O)Cc3ccc(C(C)C)cc3)C2)cc1C(F)(F)F` [Example 110, (R)-2-(4-isopropylphenyl)-N-(1-(6-methoxy-5-(trifluoromethyl)pyridin-3-yl)pyrrolidin-3-yl)acetamide], 290 nM.
Take `CC(C)(O)c1ccc(CC(=O)N[C@@H]2CCN(c3cncc(C(F)(F)F)c3)C2)cc1` [Example 131, (R)-2-(4-(2-hydroxypropan-2-yl)phenyl)-N-(1-(5-(trifluoromethyl)pyridin-3-yl)pyrrolidin-3-yl)acetamide]: the concentration for half-maximal inhibition (IC50) was 200 nM.
As for `O=C(Cc1ccc(N2CCNCC2)cc1)N[C@@H]1CCN(c2cncc(C(F)(F)F)c2)C1` [Example 94, (R)-2-(4-(piperazin-1-yl)phenyl)-N-(1-(5-(trifluoromethyl)pyridin-3-yl)pyrrolidin-3-yl)acetamide], the IC50 was 910 nM.
For `NC(C(=O)N[C@@H]1CCN(c2cncc(C(F)(F)F)c2)C1)c1ccc(C2CC2)cc1` (single isomer, unassigned) [Example 137B] the value was 820 nM; for `O=C(Cc1ccc(N2CCS(=O)(=O)CC2)cc1)N[C@@H]1CCN(c2cncc(C(F)(F)F)c2)C1` [Example 23, (R)-2-(4-(1,1-dioxidethiomorpholino)phenyl)-N-(1-(5-(trifluoromethyl)pyridin-3-yl)pyrrolidin-3-yl)acetamide], 150 nM.
To `COCCN(C)c1ccc(CC(=O)N[C@@H]2CCN(c3cncc(C(F)(F)F)c3)C2)cc1` [Example 88, (R)-2-(4-((2-methoxyethyl)(methyl)amino)phenyl)-N-(1-(5-(trifluoromethyl)pyridin-3-yl)pyrrolidin-3-yl)acetamide] belongs 19 nM; to `Cn1ncc2cc(CC(=O)N[C@@H]3CCN(c4nc(C(F)(F)F)cs4)C3)ccc21` [Example 143, (R)-2-(1-methyl-1H-indazol-5-yl)-N-(1-(4-(trifluoromethyl)thiazol-2-yl)pyrrolidin-3-yl)acetamide], 120 nM; to `CN1CCN(c2ccc(CC(=O)N[C@@H]3CCN(c4cncc(C(F)(F)F)c4)C3)cc2)CC1` [Example 93, (R)-2-(4-(4-methylpiperazin-1-yl)phenyl)-N-(1-(5-(trifluoromethyl)pyridin-3-yl)pyrrolidin-3-yl)acetamide], 340 nM.
To `CC(C)(C)c1csc(N2CC[C@@H](NC(=O)[C@H]3C[C@@H]3c3nc4ccccc4[nH]3)C2)n1` [Example 68, (1S,2S)-2-(1H-benzo[d]imidazol-2-yl)-N—((R)-1-(4-(tert-butyl)thiazol-2-yl)pyrrolidin-3-yl)cyclopropane-1-carboxyamide] belongs 75 nM; to `C[C@@]1(NC(=O)Cc2ccc(C3CC3)cc2)CCN(c2cncc(C(F)(F)F)c2)C1` [Example 148, (R)-2-(4-cyclopropylphenyl)-N-(3-methyl-1-(5-(trifluoromethyl)pyridin-3-yl)pyrrolidin-3-yl)acetamide], 200 nM; to `O=C(Cc1ccc(C2CC2)cc1)N[C@@H]1CCN(c2ccc(C(F)(F)F)nc2)C1` [Example 121, (R)-2-(4-cyclopropylphenyl)-N-(1-(6-(trifluoromethyl)pyridin-3-yl)pyrrolidin-3-yl)acetamide], 120 nM.
Take `O=C(N[C@@H]1CCN(c2cncc(C(F)(F)F)c2)C1)[C@@H]1C[C@H]1c1nc2ccccc2o1` [Example 50, (1R,2R)-2-(benzo[d]oxazol-2-yl)-N—((R)-1-(5-(trifluoromethyl)pyridin-3-yl)pyrrolidin-3-yl)cyclopropane-1-carboxyamide]: the IC50 is 680 nM.
